Results taken from BindingDB's records for doi:10.1016/j.ejmech.2016.03.038 (Glaxosmithkline, 2016).

Columns and labels:
[1] = Inhibition of pseudotype HIV1 integrase strand transfer activity assessed as reduction in viral replication in HIV1 infected human CIP4 cells after 2 days by luciferase reporter gene assay
[2] = Inhibition of pseudotype HIV1 integrase strand transfer activity assessed as reduction in viral replication in HIV1 infected human CIP4 cells after 2 days in presence of 40% human serum albumin by luciferase reporter gene assay

| Compound | IC50 [1] [nM] | IC50 [2] [nM] |
| --- | --- | --- |
| N#Cc1c2c(c(O)c3ncc(Cc4cccc(Cl)c4F)cc13)C(=O)N1CCC[C@H]1C2 | 14 | 66 |
| N#Cc1c2c(c(O)c3ncc(Cc4cccc(Cl)c4F)cc13)C(=O)N1CCCN1C2 | 2.2 | 415 |
| Cn1c(=O)c(C(=O)NCCO)c(O)c2ncc(Cc3ccc(F)cc3)cc21 [GSK364735] | 3 |  |
| N#Cc1c2c(c(O)c3ncc(Cc4cccc(Cl)c4F)cc13)C(=O)N1CCC[C@@H]21 | 10 | 3320 |
| NC(=O)c1c2c(c(O)c3ncc(Cc4cccc(Cl)c4F)cc13)C(=O)N1CCC[C@@H]1C2 | 8 | 30 |
| NC(=O)c1c2c(c(O)c3ncc(Cc4cccc(Cl)c4F)cc13)C(=O)N1CCC[C@H]1C2 | 3 | 15 |
| N#Cc1c2c(c(O)c3ncc(Cc4cccc(Cl)c4F)cc13)C(=O)N1CCCC[C@@H]21 | 18 | 1280 |
| NC(=O)c1c2c(c(O)c3ncc(Cc4cccc(Cl)c4F)cc13)C(=O)N1CCCC[C@H]21 | 0.7 | 1 |
| N#Cc1c2c(c(O)c3ncc(Cc4cccc(Cl)c4F)cc13)C(=O)N1CCCC[C@H]21 | 15 | 457 |
| N#Cc1c2c(c(O)c3ncc(Cc4cccc(Cl)c4F)cc13)C(=O)N1CCC[C@@H]1C2 | 7 | 4540 |
| NC(=O)c1c2c(c(O)c3ncc(Cc4cccc(Cl)c4F)cc13)C(=O)N1CCCC[C@@H]21 | 0.6 | 2 |
| N#Cc1c2c(c(O)c3ncc(Cc4cccc(Cl)c4F)cc13)C(=O)N1CCC[C@H]21 | 5 | 294 |
| O=C1c2c(cc3cc(Cc4cccc(Cl)c4F)cnc3c2O)CN2CCCN12 | 16 | 136 |
| O=C(NCc1ccc(F)cc1)c1cn2c(c(O)c1=O)C(=O)N1CCCO[C@H]1C2 | 2 |  |
